{"source": "patent US8372799B2", "about": "“Reverse protein” (Apeptico Forschung und Entwicklung GmbH, priority 2007, dated 2013)", "target": "T1, epithelial sodium channels (Homo sapiens, UniProt P37088+P51168+P51170)", "T1 construct": "endogenous in cells; host or cells: A549 human lung epithelial cells (ATCC CCL-185)", "T1 sequence (P37088 1-669)": "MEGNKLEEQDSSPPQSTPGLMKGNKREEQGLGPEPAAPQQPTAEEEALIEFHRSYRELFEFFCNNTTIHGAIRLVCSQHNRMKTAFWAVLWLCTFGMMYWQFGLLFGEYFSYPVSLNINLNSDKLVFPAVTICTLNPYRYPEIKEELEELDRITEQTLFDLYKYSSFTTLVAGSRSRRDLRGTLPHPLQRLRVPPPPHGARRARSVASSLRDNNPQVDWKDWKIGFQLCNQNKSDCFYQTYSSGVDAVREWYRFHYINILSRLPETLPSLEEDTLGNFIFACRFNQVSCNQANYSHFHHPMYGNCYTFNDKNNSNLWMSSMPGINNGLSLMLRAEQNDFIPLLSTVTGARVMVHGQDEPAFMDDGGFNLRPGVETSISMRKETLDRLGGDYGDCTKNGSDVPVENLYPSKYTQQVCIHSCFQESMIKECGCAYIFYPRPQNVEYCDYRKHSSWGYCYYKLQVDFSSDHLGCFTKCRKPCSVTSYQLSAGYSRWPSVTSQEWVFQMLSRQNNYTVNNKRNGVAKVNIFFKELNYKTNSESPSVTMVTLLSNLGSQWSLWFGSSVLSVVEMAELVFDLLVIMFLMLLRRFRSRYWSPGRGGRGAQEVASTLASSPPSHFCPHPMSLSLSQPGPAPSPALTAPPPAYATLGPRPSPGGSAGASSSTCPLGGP", "T1 sequence (P51168 1-640)": "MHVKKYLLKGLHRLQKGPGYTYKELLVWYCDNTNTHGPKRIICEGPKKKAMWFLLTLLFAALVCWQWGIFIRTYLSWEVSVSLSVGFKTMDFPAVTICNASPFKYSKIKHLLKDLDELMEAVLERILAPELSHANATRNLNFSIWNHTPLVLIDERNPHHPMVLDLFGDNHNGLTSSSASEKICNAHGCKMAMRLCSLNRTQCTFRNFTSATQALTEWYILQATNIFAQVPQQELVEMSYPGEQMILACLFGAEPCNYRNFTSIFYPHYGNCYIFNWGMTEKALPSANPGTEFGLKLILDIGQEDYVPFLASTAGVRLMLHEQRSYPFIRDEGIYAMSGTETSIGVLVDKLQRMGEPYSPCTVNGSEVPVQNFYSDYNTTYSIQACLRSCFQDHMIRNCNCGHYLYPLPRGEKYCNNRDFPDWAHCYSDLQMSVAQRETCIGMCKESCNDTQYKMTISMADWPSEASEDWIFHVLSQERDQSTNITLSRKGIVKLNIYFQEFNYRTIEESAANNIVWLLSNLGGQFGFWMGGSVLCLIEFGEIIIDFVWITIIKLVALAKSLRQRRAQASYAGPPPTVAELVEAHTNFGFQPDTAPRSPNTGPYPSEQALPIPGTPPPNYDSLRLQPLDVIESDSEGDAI", "T1 sequence (P51170 1-649)": "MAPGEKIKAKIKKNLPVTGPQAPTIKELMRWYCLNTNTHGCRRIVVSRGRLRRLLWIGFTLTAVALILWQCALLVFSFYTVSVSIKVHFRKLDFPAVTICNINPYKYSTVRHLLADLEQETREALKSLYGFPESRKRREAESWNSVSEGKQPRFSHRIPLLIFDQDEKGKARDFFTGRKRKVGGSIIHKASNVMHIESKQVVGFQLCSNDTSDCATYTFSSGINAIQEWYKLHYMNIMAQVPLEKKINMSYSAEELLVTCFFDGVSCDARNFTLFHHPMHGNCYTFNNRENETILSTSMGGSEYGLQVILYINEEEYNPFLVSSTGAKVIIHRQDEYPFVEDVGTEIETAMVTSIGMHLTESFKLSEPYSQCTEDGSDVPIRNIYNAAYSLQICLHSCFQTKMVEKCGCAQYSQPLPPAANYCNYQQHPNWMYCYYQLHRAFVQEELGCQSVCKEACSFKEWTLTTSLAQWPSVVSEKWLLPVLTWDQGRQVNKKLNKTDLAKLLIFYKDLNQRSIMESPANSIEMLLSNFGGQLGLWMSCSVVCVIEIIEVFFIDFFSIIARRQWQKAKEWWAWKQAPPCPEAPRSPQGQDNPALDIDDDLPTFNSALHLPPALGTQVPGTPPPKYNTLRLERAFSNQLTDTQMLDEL", "assay": "Patch-clamp activation of sodium ion channels in A549 cells", "format": "cell-based", "settings": "10 μM amiloride", "description": "Furthermore, a method common in laboratories is to detect the activation of ion channels by means of patch-clamp experiments, and this is described, for example, in Clunes M. T. et al, J Physiol Volume 557, No. 3, 809-819 (Jun. 15, 2004). For patch-clamp examinations of ion channels, a glass cannula is stretched thin and filled with a neutral buffer solution. The glass cannula (patch-clamp pipette) is carefully pressed onto an intact epithelial cell. A piece of membrane is located below the pipette. An electrical resistance is thereby produced between the interior of the pipette and the external solution. An electrode attached to a sensitive amplifier dips into the pipette solution.\nThe electrophysiological experiments were performed on human A549 cells (ATTC No. CCL-185). A549 cells are human lung epithelial cells which are involved in the diffusion of water and electrolytes in the lungs.\nThe cells were suspended in DMEM-F-12 medium with 1% penicillin-streptomycin and 10% fetal calf serum, transferred into plastic cell culture vessels and cultivated in the incubator with 95% air and 5% CO2 at 37° C. The medium was changed 2 to 3 times per week. The cells double within approx. 22 hours and a cell concentration of more than 7×10^4 cells per cm^2 was not exceeded.\nMacroscopic currents and single-channel currents were discharged from A549 cells in the “whole cell” and “cell-attached” configuration of the “patch-clamp” technique (Hamill et al, Pflugers Arch. 1981, 391(2):85-100, 1981). For the current dissipations in the “whole cell” configuration, the following bath and electrode solutions were used:\nBath solution: 135 mM sodium methane sulfonate, 10 mM NaCl, 2.7 mM KCl, 1.8 mM CaCl2, 2 mM MgCl2, 5.5 mM glucose, and 10 mM HEPES, pH 7.4. […]\nThe cover slips with the cells cultivated thereon were transferred into a test bath with a capacity of 1 ml, fixed on the microscope table (Axiovert 100, 400-fold magnification), and the cells were superfused with the above-described bath solution. […] In the “cell-attached” configuration, the current can be measured through individual ion channels beneath the electrode tip. In the “whole cell” configuration, the membrane was penetrated beneath the electrode tip so that the current flowing through all ion channels of the cell could be measured. […] Upon obtaining a Gigaohm seal, a defined membrane retaining potential was applied via a pre-amplifier (CV-4 Headstage, Axon Instruments) and an amplifier (Axopatch 1D, Axon Instr.) and the current thereby flowing through the ion channels was measured.\nThe pulse protocol consisted of a hyperpolarization to −100 mV for 1 s at an interval of 5 s. […] The current dissipations thus obtained were stored and analyzed by means of the program PCLAMP 6.0. […]", "data": [{"smiles": "N=C(N)NC(=O)c1nc(Cl)c(N)nc1N", "note": "[amiloride, reference compound]", "values": [{"measurement": "inhibition of ion channels (patch clamp)", "value": "inhibition of ion channels"}]}]}
